Source: US11413301B2, “Composition comprising sea cucumber extract as effective ingredient for preventing and treating Bruch's membrane dysfunction-related disease” (priority 2016, dated 2022)

Tests used:
[1] = system: MMP enzyme secreted from a human Bruch's membrane; assay: MMP secretion from Bruch's membrane incubated with Frondoside A (zymography); conditions: Frondoside A 167 μg/mL, 30 hours
Method: Zymography was performed using the solution incubated for 30 hours in the measurement of hydraulic conductivity in Example 10. Specifically, a Bruch's membrane was incubated with a Tris buffer solution as a control or a Frondoside A solution (167 μg/mL) for 30 hours, 50 μL of the resulting solution was mixed with 50 μL of the SDS sample buffer, and then 30 μL of the resulting mixture was loaded on a gel to measure an MMP enzyme secreted from a human Bruch's membrane.

human Bruch's membrane = assay: Hydraulic conductivity of isolated Bruch's membrane (open-type Ussing chamber, fluid transport under hydrostatic pressure)
Method: First, to confirm the waste transport ability, the hydraulic conductivity of the Bruch's membrane isolated from a donated eye was measured. The isolated Bruch's membrane was mounted in an open-type Ussing chamber to measure a quantitative change in fluid under hydrostatic pressure and calculate a change in hydraulic conductivity (FIGS. 5B and 5C). […] The data of FIG. 5D is expressed using a semi-log plot with the logarithmic scale on the y-axis to convert exponential decay to a linear plot. To maintain the function of photoreceptor cells, the Bruch's membrane requires a minimal hydraulic conductivity function, which represents a failure line. […] All of the hydraulic conductivities measured for the peripheral regions of the 11 macular degeneration patients may be observed to be below the mean regression line (refer to the black circle and the red line in FIG. 5E), showing that, in the peripheral region, rather than the macular region, the decrease in the material transport function progresses to a serious condition. […]
In addition, to investigate the improvement of the transport function of the Bruch's membrane according to the dose of the sea cucumber extract, Bruch's membranes isolated from the eyes of four donors ranging from 69 to 84 years of age were measured, a dose response curve for the improvement of hydraulic conductivity was expressed. […]

[2] = system: lipids of Bruch's membrane; assay: Lipid removal from Bruch's membrane by Frondoside A (lipid extracted from membrane, TLC); set-up: species or system human; conditions: Frondoside A 167 μg/mL, membrane after hydraulic conductivity measurement
Method: To confirm the lipid removal effect of Frondoside A, after the measurement of hydraulic conductivity in Example 10, the Bruch's membrane was cut into a piece having a diameter of 6 mm, and then a lipid was extracted using a CM solution (chloroform:methanol=2:1), followed by evaporating the solvent. After 50 μL of a CM solution was added thereto again, 40 μL of the resulting solution was dropped on a silica gel TLC plate, and the type and amount of the lipid were analyzed.

## COC1C(O)C(CO)OC(OC2C(O)COC(OC3C(C)OC(OC4C(O[C@H]5CC[C@]6(C)C7CCC89C(=O)O[C@@](C)(CCCC(C)C)[C@H]8[C@@H](OC(C)=O)C[C@@]9(C)C7=CC[C@H]6C5(C)C)OCC(OS(=O)(=O)[O-])C4O)C(OC4OCC(O)C(O)C4O)C3O)C2O)C1O.[Na+] (stereo partly shown) [Frondoside A]
[1]
  secretion of Pro-MMP9 bound to the membrane: an enormous amount of Pro-MMP9 bound to the membrane was secreted
Human Bruch's membrane; Frondoside A 167 μg/mL, control Tris buffer
  effect on the improvement of hydraulic conductivity relative to the control: ≥ 1.6 fold
Human Bruch's membrane; Frondoside A 167 μg/ml
  hydraulic conductivity Fold-change Mean ± SD (n): 1.65 ± 0.2 (3) Fold-change
[2]
  removal of Ch from the Bruch's membrane: did not have an effect
  removal of ChE from the Bruch's membrane: did not have an effect
  removal of TG from the Bruch's membrane: did not have an effect
  removal of phosphatidylcholine from the Bruch's membrane: had an effect of removing phosphatidylcholine
